The target of assay [1] is T1, Recombinant human NK3 (hNK3) receptor (Homo sapiens, UniProt P29371).
T1 construct: expressed in transfected cells; membrane preparations of the recombinant receptor
T1 sequence (P29371 1-465): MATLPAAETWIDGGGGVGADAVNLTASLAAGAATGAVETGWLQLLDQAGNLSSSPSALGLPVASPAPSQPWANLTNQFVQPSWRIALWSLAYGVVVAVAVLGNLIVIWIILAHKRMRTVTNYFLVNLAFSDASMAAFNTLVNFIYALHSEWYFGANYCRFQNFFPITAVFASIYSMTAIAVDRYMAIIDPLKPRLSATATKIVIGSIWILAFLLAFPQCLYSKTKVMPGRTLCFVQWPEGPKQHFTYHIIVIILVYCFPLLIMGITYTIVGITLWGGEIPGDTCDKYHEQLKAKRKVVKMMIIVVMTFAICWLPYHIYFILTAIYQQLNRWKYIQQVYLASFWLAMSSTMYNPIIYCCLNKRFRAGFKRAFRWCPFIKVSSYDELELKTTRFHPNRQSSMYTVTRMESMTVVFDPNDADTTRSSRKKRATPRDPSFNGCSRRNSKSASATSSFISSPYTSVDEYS
The assay is described as follows: NK3 receptor binding assay, [3H]SR142801 displacement. Conditions: hNK3 receptor membranes, [3H]SR142801 0.3 nM. As to the method:
Recombinant human NK3 (hNK3) receptor affinity was determined in a 96 well plate assay, using [^3H]SR142801 (final concentration 0.3 nM) to radiolabel the hNK3 receptor in the presence of 10 concentrations of competing compound or buffer. Non specific binding was determined using 10 μM SB222200. Assay buffer consisted of Tris-HCl (50 mM, pH 7.4), BSA (0.1%), MnCl2 (4 mM) and phosphoramidon (1 μM). Membrane preparations of hNK3 receptors (approximately 2.5 μg/well in a 96 well plate) were used to initiate the incubation for 90 min at room temperature. This assay was terminated by rapid filtration under vacuum through GF/C filters, presoaked for 90 min with PEI (0.3%), with 3×0.5 ml washes of ice-cold Tris buffer (50 mM, pH 7.4) containing 0.1% BSA. The radioactivity retained on the filters was measured by scintillation counting. All assays were performed in duplicate in at least two separate experiments.

Assay [2] concerns the target T2, human NK1 receptor (Homo sapiens, UniProt P25103).
T2 construct: expressed in transfected cells; host or cells: CHO cells (Semliki virus expression system), membrane suspension
The assay is described as follows: NK1 receptor binding assay, [3H]substance P displacement. The settings on record: human NK1 receptors in CHO cells, [3H]substance P 0.6 nM.

For assay [3] the following is noted: phase II trial, cited from earlier work.

The Ki is a measure of affinity in units of concentration, obtained from inhibition or displacement.

T2 sequence (P25103 whole entry): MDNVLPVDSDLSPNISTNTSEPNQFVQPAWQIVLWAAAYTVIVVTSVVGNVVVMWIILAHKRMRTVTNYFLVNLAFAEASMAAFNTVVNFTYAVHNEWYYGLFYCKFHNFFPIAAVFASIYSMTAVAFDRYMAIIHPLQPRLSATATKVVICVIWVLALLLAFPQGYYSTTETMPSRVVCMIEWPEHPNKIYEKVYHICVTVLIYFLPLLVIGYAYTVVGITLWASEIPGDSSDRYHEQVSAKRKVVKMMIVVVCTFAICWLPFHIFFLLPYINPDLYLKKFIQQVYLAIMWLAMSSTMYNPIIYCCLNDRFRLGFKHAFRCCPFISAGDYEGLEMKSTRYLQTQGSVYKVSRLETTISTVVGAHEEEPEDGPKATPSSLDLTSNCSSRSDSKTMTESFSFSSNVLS

On to `Cc1cc(F)ccc1-c1c(N(C)C(=O)C(C)(C)c2cc(C(F)(F)F)cc(C(F)(F)F)c2)cnc2[nH]ncc12` [Example 28, 2-(3,5-Bis-trifluoromethyl-phenyl)-N-[4-(4-fluoro-2-methyl-phenyl)-1H-pyrazolo[3,4-b]pyridin-5-yl]-N-methyl-isobutyramide], for which the Ki in assay [1] came out at 0.0273 µM; in assay [2], 0.0016 µM.

`CCn1ncc2c(-c3ccccc3CO)c(N(C)C(=O)C(C)(C)c3cc(C(F)(F)F)cc(C(F)(F)F)c3)cnc21` [Example 20, 2-(3,5-Bis-trifluoromethyl-phenyl)-N-[1-ethyl-4-(2-hydroxymethyl-phenyl)-1H-pyrazolo[3,4-b]pyridin-5-yl]-N-methyl-isobutyramide]: the Ki is 0.209 µM in assay [1] and 0.0016 µM in assay [2].

As for `CCn1ncc2c(-c3ccccc3C)c(N(C)C(=O)C(C)(C)c3cc(C(F)(F)F)cc(C(F)(F)F)c3)cnc21` [Example 1, 2-(3,5-Bis-trifluoromethyl-phenyl)-N-(1-ethyl-4-o-tolyl-1H-pyrazolo[3,4-b]pyridin-5-yl)-N-methyl-isobutyramide], the Ki in assay [1] stood at 0.0327 µM; in assay [2] it was 0.0012 µM.

For `CCn1ncc2c(-c3ccc(F)cc3C)c(N(C)C(=O)C(C)(C)c3cccc(C(F)(F)F)c3)cnc21` [Example 30, N-[1-Ethyl-4-(4-fluoro-2-methyl-phenyl)-1H-pyrazolo[3,4-b]pyridin-5-yl]-N-methyl-2-(3-trifluoromethyl-phenyl)-isobutyramide], the Ki in assay [1] came to 0.875 µM; in assay [2] it was 0.0124 µM.

For `Cc1cc(F)ccc1-c1c(N(C)C(=O)C(C)(C)c2cc(C(F)(F)F)cc(C(F)(F)F)c2)cnc2c1cnn2C` [Example 7, 2-(3,5-Bis-trifluoromethyl-phenyl)-N-[4-(4-fluoro-2-methyl-phenyl)-1-methyl-1H-pyrazolo[3,4-b]pyridin-5-yl]-N-methyl-isobutyramide], the inhibitory constant (Ki) in assay [1] amounted to 0.0189 µM; in assay [2], 0.0008 µM.

In the case of `CCn1ncc2c(-c3ccc(OC)cc3C)c(N(C)C(=O)C(C)(C)c3cc(C(F)(F)F)cc(C(F)(F)F)c3)cnc21` [Example 16, 2-(3,5-Bis-trifluoromethyl-phenyl)-N-[1-ethyl-4-(4-methoxy-2-methyl-phenyl)-1H-pyrazolo[3,4-b]pyridin-5-yl]-N-methyl-isobutyramide], the inhibition constant Ki in assay [1] turned out to be 0.373 µM; in assay [2], 0.0086 µM.

As for `COCC(=O)n1ncc2c(-c3ccc(F)cc3C)c(N(C)C(=O)C(C)(C)c3cc(C(F)(F)F)cc(C(F)(F)F)c3)cnc21` [Example 32, 2-(3,5-Bis-trifluoromethyl-phenyl)-N-[4-(4-fluoro-2-methyl-phenyl)-1-(2-methoxy-acetyl)-1H-pyrazolo[3,4-b]pyridin-5-yl]-N-methyl-isobutyramide], the inhibition constant Ki worked out at 0.0284 µM in assay [1] and 0.0019 µM in assay [2].

As to `CCn1ncc2c(-c3ccc(F)cc3Cl)c(N(C)C(=O)C(C)(C)c3cc(C(F)(F)F)cc(C(F)(F)F)c3)cnc21` [Example 19, 2-(3,5-Bis-trifluoromethyl-phenyl)-N-[4-(2-chloro-4-fluoro-phenyl)-1-ethyl-1H-pyrazolo[3,4-b]pyridin-5-yl]-N-methyl-isobutyramide], the Ki in assay [1] was determined as 0.0138 µM; in assay [2], 0.0003 µM.

Regarding `CCn1ncc2c(-c3ccc(Cl)c(Cl)c3)c(N(C)C(=O)C(C)(C)c3cc(C(F)(F)F)cc(C(F)(F)F)c3)cnc21` [Example 4, 2-(3,5-Bis-trifluoromethyl-phenyl)-N-[4-(3,4-dichloro-phenyl)-1-ethyl-1H-pyrazolo[3,4-b]pyridin-5-yl]-N-methyl-isobutyramide], the inhibition constant (Ki) turned out to be 0.0868 µM in assay [1] and 0.0004 µM in assay [2].

Turning to `CCn1ncc2c(-c3ccc(F)cc3C)c(N(C)C(=O)C(C)(C)c3cccc(Cl)c3)cnc21` [Example 29, 2-(3-Chloro-phenyl)-N-[1-ethyl-4-(4-fluoro-2-methyl-phenyl)-1H-pyrazolo[3,4-b]pyridin-5-yl]-N-methyl-isobutyramide], the Ki worked out at 0.308 µM in assay [1] and 0.0345 µM in assay [2].

`Cc1cc(F)ccc1-c1c(N(C)C(=O)C(C)(C)c2cc(C(F)(F)F)cc(C(F)(F)F)c2)cnc2c1cnn2S(=O)(=O)N(C)C` [Example 37, 2-(3,5-Bis-trifluoromethyl-phenyl)-N-[1-dimethylsulfamoyl-4-(4-fluoro-2-methyl-phenyl)-1H-pyrazolo[3,4-b]pyridin-5-yl]-N-methyl-isobutyramide]: the results for the Ki in assay [1] and in assay [2] were 0.0785 µM and 0.0075 µM, respectively.

As to `CCn1ncc2c(-c3ccc(C#N)cc3)c(N(C)C(=O)C(C)(C)c3cc(C(F)(F)F)cc(C(F)(F)F)c3)cnc21` [Example 23, 2-(3,5-Bis-trifluoromethyl-phenyl)-N-[4-(4-cyano-phenyl)-1-ethyl-1H-pyrazolo[3,4-b]pyridin-5-yl]-N-methyl-isobutyramide], the figures for the Ki in assay [1] and in assay [2] were 0.979 µM and 0.0049 µM, respectively.

Regarding `CCn1ncc2c(-c3ccccc3OC)c(N(C)C(=O)C(C)(C)c3cc(C(F)(F)F)cc(C(F)(F)F)c3)cnc21` [Example 15, 2-(3,5-Bis-trifluoromethyl-phenyl)-N-[1-ethyl-4-(2-methoxy-phenyl)-1H-pyrazolo[3,4-b]pyridin-5-yl]-N-methyl-isobutyramide], the inhibition constant Ki worked out at 0.208 µM in assay [1] and 0.0007 µM in assay [2].

On to `CCn1ncc2c(-c3ccc(F)cc3F)c(N(C)C(=O)C(C)(C)c3cc(C(F)(F)F)cc(C(F)(F)F)c3)cnc21` [Example 8, 2-(3,5-Bis-trifluoromethyl-phenyl)-N-[4-(2,4-difluoro-phenyl)-1-ethyl-1H-pyrazolo[3,4-b]pyridin-5-yl]-N-methyl-isobutyramide], for which the Ki in assay [1] was determined as 0.483 µM; in assay [2], 0.0017 µM.

As for `CCn1ncc2c(-c3ccsc3Cl)c(N(C)C(=O)C(C)(C)c3cc(C(F)(F)F)cc(C(F)(F)F)c3)cnc21` [Example 24, 2-(3,5-Bis-trifluoromethyl-phenyl)-N-[4-(2-chloro-thiophen-3-yl)-1-ethyl-1H-pyrazolo[3,4-b]pyridin-5-yl]-N-methyl-isobutyramide], the figures for the inhibition constant Ki in assay [1] and in assay [2] were 0.0007 µM and 0.036 µM, respectively.

Turning to `CCn1ncc2c(-c3ccccc3Cl)c(N(C)C(=O)C(C)(C)c3cc(C(F)(F)F)cc(C(F)(F)F)c3)cnc21` [Example 3, 2-(3,5-Bis-trifluoromethyl-phenyl)-N-[4-(2-chloro-phenyl)-1-ethyl-1H-pyrazolo[3,4-b]pyridin-5-yl]-N-methyl-isobutyramide], the Ki in assay [1] turned out to be 0.0229 µM; in assay [2] it was 0.0006 µM.

Regarding `Cc1cc(F)ccc1-c1c(N(C)C(=O)C(C)(C)c2cc(C(F)(F)F)cc(C(F)(F)F)c2)cnc2c1cnn2CS(C)(=O)=O` [Example 38, 2-(3,5-Bis-trifluoromethyl-phenyl)-N-[4-(4-fluoro-2-methyl-phenyl)-1-methanesulfonylmethyl-1H-pyrazolo[3,4-b]pyridin-5-yl]-N-methyl-isobutyramide], the results for the Ki in assay [1] and in assay [2] were 0.008 µM and 0.0011 µM, respectively.

Take `CC(=O)N(C)C1(c2ccccc2)CCN(CCC[C@]2(c3ccc(Cl)c(Cl)c3)CCCN(C(=O)c3ccccc3)C2)CC1` [SR 142,801, Osanetant]: in assay [3] (altered behaviour, delusion, hallucinations, extreme emotions, excited motor activity, incoherent speech), the “activity on positive symptoms of schizophrenia” value is given as “active”. Also, the “activity in the treatment of negative symptoms of schizophrenia” value in assay [3] (depression, anhedonia, social isolation or memory and attention deficits) is “inactive”.

The values are drawn from patent US8487102B2, “Pyrrazolopyridine compounds as dual NK1/NK3 receptor antagonists” (Hoffmann-La Roche Inc., priority 2010, dated 2013).
